Data published in patent US20070128217A1 (priority 2003, published 2007).

Columns and labels:
[1] = tested on: recombinant human anti-SARS-CoV antibody 03-018; format: binding; design: Binding of antibody 03-018 to linear peptides of the N protein of SARS-CoV Urbani / Binding of antibody 03-018 to looped/cyclic peptides of the N protein of SARS-CoV Urbani: unit not given here
[2] = tested on: antibodies in sera from SARS patients (sera 1a, 1b, 2, 6, 37, 62, London, SARS-yellow, SARS-green); format: binding, human; design: Binding of serum 6 to linear peptides of protein X1 of SARS-CoV Urbani / Binding of serum 37 to linear peptides of protein X1 of SARS-CoV Urbani / Binding of serum 6 to looped/cyclic peptide (PEPSCAN-ELISA) / Binding of serum 37 to looped/cyclic peptide (PEPSCAN-ELISA) / Binding of serum 37 to looped/cyclic peptides of protein X1 of SARS-CoV Urbani / Binding of serum 6 to linear peptides of protein X2 / Binding of serum 37 to linear peptides of protein X2 / Binding of serum 37 to looped/cyclic peptides of protein X2 of SARS-CoV Urbani / Binding of serum 6 to linear peptides of protein M of SARS-CoV Urbani / Binding of serum 37 to linear peptides of protein M of SARS-CoV Urbani / Binding of serum 6 to looped/cyclic peptides of protein M of SARS-CoV Urbani / Binding of serum 37 to looped/cyclic peptides of protein M of SARS-CoV Urbani / Binding of serum 6 to linear peptides of protein X3 of SARS-CoV Urbani / Binding of serum 37 to linear peptides of protein X3 of SARS-CoV Urbani / Binding of serum 37 to looped/cyclic peptides of protein X3 of SARS-CoV Urbani / Binding of serum 6 to linear peptides of protein X4 of SARS-CoV Urbani / Binding of serum 37 to linear peptides of protein X4 of SARS-CoV Urbani / Binding of serum 37 to looped/cyclic peptides of protein X4 of SARS-CoV Urbani / Binding of serum 6 to linear peptides of protein X5 of SARS-CoV Urbani / Binding of serum 37 to linear peptides of protein X5 of SARS-CoV Urbani / Binding of serum 37 to looped/cyclic peptides of protein X5 of SARS-CoV Urbani / Binding of serum 6 to linear peptides of protein N of SARS-CoV Urbani / Binding of serum 37 to linear peptides of protein N of SARS-CoV Urbani / Binding of serum 6 to linear peptide (PEPSCAN-ELISA) / Binding of serum 1a to looped/cyclic peptides of protein N of SARS-CoV Urbani / Binding of serum 1b to looped/cyclic peptides of protein N of SARS-CoV Urbani / Binding of serum 2 to looped/cyclic peptides of protein N of SARS-CoV Urbani / Binding of serum 6 to looped/cyclic peptides of protein N of SARS-CoV Urbani / Binding of serum 37 to looped/cyclic peptides of protein N of SARS-CoV Urbani / Binding of serum 62 to looped/cyclic peptides of protein N of SARS-CoV Urbani / Binding of serum London to looped/cyclic peptides of protein N of SARS-CoV Urbani / Binding of serum SARS-green to looped/cyclic peptides of protein N of SARS-CoV Urbani: unit not given here
[3] = tested on: control sera (pooled serum of ten healthy LUMC hospital workers; commercial negative donor pooled serum from the Dutch bloodbank); format: binding, human; design: Binding of Control serum LUMC to linear peptides / Binding of Control serum Blood-bank to linear peptides / Binding of Control serum LUMC to looped peptides / Binding of Control Serum Blood-Bank to Looped peptides / Binding of Control serum LUMC to linear peptides of the protein M of SARS-CoV Urbani / Binding of Control serum Blood-bank to linear peptides of the protein M of SARS-CoV Urbani / Binding of Control serum LUMC to looped peptides of the protein M of SARS-CoV Urbani / Binding of Control Serum Blood-Bank to Looped peptides of the protein M of SARS-CoV Urbani: unit not given here
[4] = tested on: rabbit serum obtained by immunizing a rabbit with the SARS-CoV strain Frankfurt 1; format: binding; design: Binding of a rabbit serum to linear peptides / Binding of a rabbit serum to looped peptides / Rabbit serum linear peptides / Rabbit serum looped peptides / Binding of a rabbit serum to linear peptides of protein N of SARS-CoV Urbani (Rabbit serum linear peptides) / Binding of a rabbit serum to looped/cyclic peptides of protein N of SARS-CoV Urbani (Rabbit serum looped peptides): unit not given here

DQIGYYRRATRRVRG
Binding of antibody 03-018 to linear peptides of the N protein of SARS-CoV Urbani [1]: 0.1 | Binding of antibody 03-018 to looped/cyclic peptides of the N protein of SARS-CoV Urbani [1]: 0.3 | Binding of serum 1a to linear peptides of protein N of SARS-CoV Urbani [2]: 0.2 | Binding of serum 1a to looped/cyclic peptides of protein N of SARS-CoV Urbani [2]: 0.3 | Binding of serum 1b to linear peptides of protein N of SARS-CoV Urbani [2]: 0.1 | Binding of serum 1b to looped/cyclic peptides of protein N of SARS-CoV Urbani [2]: 0.2 | Binding of serum 2 to linear peptides of protein N of SARS-CoV Urbani [2]: 0.3 | Binding of serum 2 to looped/cyclic peptides of protein N of SARS-CoV Urbani [2]: 0.5 | Binding of serum 6 to linear peptides of protein N of SARS-CoV Urbani [2]: 0.2 | Binding of serum 6 to looped/cyclic peptides of protein N of SARS-CoV Urbani [2]: 0.3 | Binding of serum 37 to linear peptides of protein N of SARS-CoV Urbani [2]: 0.7 | Binding of serum 37 to looped/cyclic peptides of protein N of SARS-CoV Urbani [2]: 0.9 | Binding of serum 62 to linear peptides of protein N of SARS-CoV Urbani [2]: 0.6 | Binding of serum 62 to looped/cyclic peptides of protein N of SARS-CoV Urbani [2]: 0.8 | Binding of serum London to linear peptides of protein N of SARS-CoV Urbani [2]: 0.5 | Binding of serum London to looped/cyclic peptides of protein N of SARS-CoV Urbani [2]: 0.5 | Binding of serum SARS-green to linear peptides of protein N of SARS-CoV Urbani [2]: 0.4 | Binding of serum SARS-green to looped/cyclic peptides of protein N of SARS-CoV Urbani [2]: 0.6 | Binding of serum SARS-yellow to linear peptides of protein N of SARS-CoV Urbani [2]: 0.6 | Binding of serum SARS-yellow to looped/cyclic peptides of protein N of SARS-CoV Urbani [2]: 0.7 | Binding of Control Serum Blood-Bank to Looped peptides [3]: 0.8 | Binding of Control serum Blood-bank to linear peptides [3]: 0.8 | Binding of Control serum LUMC to linear peptides [3]: 0.7 | Binding of Control serum LUMC to looped peptides [3]: 0.7 | Recognition of the peptide by the rabbit serum [4]: recognized

RRATRRVRGGDGKMK
Binding of antibody 03-018 to linear peptides of the N protein of SARS-CoV Urbani [1]: 0.1 | Binding of antibody 03-018 to looped/cyclic peptides of the N protein of SARS-CoV Urbani [1]: 0.2 | Binding of serum 1a to linear peptides of protein N of SARS-CoV Urbani [2]: 0.2 | Binding of serum 1a to looped/cyclic peptides of protein N of SARS-CoV Urbani [2]: 0.2 | Binding of serum 1b to linear peptides of protein N of SARS-CoV Urbani [2]: 0.1 | Binding of serum 1b to looped/cyclic peptides of protein N of SARS-CoV Urbani [2]: 0.1 | Binding of serum 2 to linear peptides of protein N of SARS-CoV Urbani [2]: 0.3 | Binding of serum 2 to looped/cyclic peptides of protein N of SARS-CoV Urbani [2]: 0.1 | Binding of serum 6 to linear peptides of protein N of SARS-CoV Urbani [2]: 0.3 | Binding of serum 6 to looped/cyclic peptides of protein N of SARS-CoV Urbani [2]: 0.1 | Binding of serum 37 to linear peptides of protein N of SARS-CoV Urbani [2]: 0.8 | Binding of serum 37 to looped/cyclic peptides of protein N of SARS-CoV Urbani [2]: 0.4 | Binding of serum 62 to linear peptides of protein N of SARS-CoV Urbani [2]: 0.7 | Binding of serum 62 to looped/cyclic peptides of protein N of SARS-CoV Urbani [2]: 0.3 | Binding of serum London to linear peptides of protein N of SARS-CoV Urbani [2]: 0.5 | Binding of serum London to looped/cyclic peptides of protein N of SARS-CoV Urbani [2]: 0.2 | Binding of serum SARS-green to linear peptides of protein N of SARS-CoV Urbani [2]: 0.3 | Binding of serum SARS-green to looped/cyclic peptides of protein N of SARS-CoV Urbani [2]: 0.0 | Binding of serum SARS-yellow to linear peptides of protein N of SARS-CoV Urbani [2]: 0.6 | Binding of serum SARS-yellow to looped/cyclic peptides of protein N of SARS-CoV Urbani [2]: 0.2 | Binding of Control Serum Blood-Bank to Looped peptides [3]: 0.4 | Binding of Control serum Blood-bank to linear peptides [3]: 0.8 | Binding of Control serum LUMC to linear peptides [3]: 0.8 | Binding of Control serum LUMC to looped peptides [3]: 0.3 | Binding of a rabbit serum to linear peptides of protein N of SARS-CoV Urbani (Rabbit serum linear peptides) [4]: 0.6 | Binding of a rabbit serum to looped/cyclic peptides of protein N of SARS-CoV Urbani (Rabbit serum looped peptides) [4]: 0.1

TFPPTEPKKDKKKKT
Binding of antibody 03-018 to linear peptides of the N protein of SARS-CoV Urbani [1]: 0.1 | Binding of antibody 03-018 to looped/cyclic peptides of the N protein of SARS-CoV Urbani [1]: 0.2 | Binding of serum 1a to linear peptides of protein N of SARS-CoV Urbani [2]: 0.2 | Binding of serum 1a to looped/cyclic peptides of protein N of SARS-CoV Urbani [2]: 0.2 | Binding of serum 1b to linear peptides of protein N of SARS-CoV Urbani [2]: 0.1 | Binding of serum 1b to looped/cyclic peptides of protein N of SARS-CoV Urbani [2]: 0.1 | Binding of serum 2 to linear peptides of protein N of SARS-CoV Urbani [2]: 0.9 | Binding of serum 2 to looped/cyclic peptides of protein N of SARS-CoV Urbani [2]: 0.3 | Binding of serum 6 to linear peptides of protein N of SARS-CoV Urbani [2]: 0.3 | Binding of serum 6 to looped/cyclic peptides of protein N of SARS-CoV Urbani [2]: 0.1 | Binding of serum 37 to linear peptides of protein N of SARS-CoV Urbani [2]: 0.8 | Binding of serum 37 to looped/cyclic peptides of protein N of SARS-CoV Urbani [2]: 0.4 | Binding of serum 62 to linear peptides of protein N of SARS-CoV Urbani [2]: 0.8 | Binding of serum 62 to looped/cyclic peptides of protein N of SARS-CoV Urbani [2]: 0.4 | Binding of serum London to linear peptides of protein N of SARS-CoV Urbani [2]: 0.5 | Binding of serum London to looped/cyclic peptides of protein N of SARS-CoV Urbani [2]: 0.3 | Binding of serum SARS-green to linear peptides of protein N of SARS-CoV Urbani [2]: 0.3 | Binding of serum SARS-green to looped/cyclic peptides of protein N of SARS-CoV Urbani [2]: 0.1 | Binding of serum SARS-yellow to linear peptides of protein N of SARS-CoV Urbani [2]: 0.9 | Binding of serum SARS-yellow to looped/cyclic peptides of protein N of SARS-CoV Urbani [2]: 0.3 | Control Serum Blood-Bank Looped peptides [3]: 0.5 | Control serum Blood-bank linear peptides [3]: 0.6 | Control serum LUMC linear peptides [3]: 0.7 | Control serum LUMC looped peptides [3]: 0.4 | Binding of a rabbit serum to linear peptides of protein N of SARS-CoV Urbani (Rabbit serum linear peptides) [4]: 0.2 | Binding of a rabbit serum to looped/cyclic peptides of protein N of SARS-CoV Urbani (Rabbit serum looped peptides) [4]: 0.3

KKQPTVTLLPAADMD
Binding of antibody 03-018 to linear peptides of the N protein of SARS-CoV Urbani [1]: 0.1 | Binding of antibody 03-018 to looped/cyclic peptides of the N protein of SARS-CoV Urbani [1]: 0.2 | Binding of serum 1a to linear peptides of protein N of SARS-CoV Urbani [2]: 0.3 | Binding of serum 1a to looped/cyclic peptides of protein N of SARS-CoV Urbani [2]: 0.3 | Binding of serum 1b to linear peptides of protein N of SARS-CoV Urbani [2]: 0.2 | Binding of serum 1b to looped/cyclic peptides of protein N of SARS-CoV Urbani [2]: 0.2 | Binding of serum 2 to linear peptides of protein N of SARS-CoV Urbani [2]: 0.2 | Binding of serum 2 to looped/cyclic peptides of protein N of SARS-CoV Urbani [2]: 0.2 | Binding of serum 6 to linear peptides of protein N of SARS-CoV Urbani [2]: 0.2 | Binding of serum 6 to looped/cyclic peptides of protein N of SARS-CoV Urbani [2]: 0.1 | Binding of serum 37 to linear peptides of protein N of SARS-CoV Urbani [2]: 1.0 | Binding of serum 37 to looped/cyclic peptides of protein N of SARS-CoV Urbani [2]: 0.4 | Binding of serum 62 to linear peptides of protein N of SARS-CoV Urbani [2]: 0.7 | Binding of serum 62 to looped/cyclic peptides of protein N of SARS-CoV Urbani [2]: 0.2 | Binding of serum London to linear peptides of protein N of SARS-CoV Urbani [2]: 0.6 | Binding of serum London to looped/cyclic peptides of protein N of SARS-CoV Urbani [2]: 0.2 | Binding of serum SARS-green to linear peptides of protein N of SARS-CoV Urbani [2]: 1.3 | Binding of serum SARS-green to looped/cyclic peptides of protein N of SARS-CoV Urbani [2]: 0.7 | Binding of serum SARS-yellow to linear peptides of protein N of SARS-CoV Urbani [2]: 0.5 | Binding of serum SARS-yellow to looped/cyclic peptides of protein N of SARS-CoV Urbani [2]: 0.2 | Control Serum Blood-Bank Looped peptides [3]: 0.3 | Control serum Blood-bank linear peptides [3]: 0.7 | Control serum LUMC linear peptides [3]: 0.6 | Control serum LUMC looped peptides [3]: 0.3 | Binding of a rabbit serum to linear peptides of protein N of SARS-CoV Urbani (Rabbit serum linear peptides) [4]: 0.1 | Binding of a rabbit serum to looped/cyclic peptides of protein N of SARS-CoV Urbani (Rabbit serum looped peptides) [4]: 0.2
